Values of other authors as cited in patent US5116619A, “Vaginal progesterone tablet” (priority 1988, dated 1992).

CC(=O)[C@H]1CC[C@H]2[C@@H]3CCC4=CC(=O)CC[C@]4(C)[C@H]3CC[C@]12C [progesterone, pregn-4-ene-3,20-dione]
plasma half-life (endogenous progesterone): a few minutes
administered radiolabeled progesterone in feces (feces): about 10%
serum levels after oral administration (in vivo, po): significant but highly variable serum levels
first half-life (intravenous injections): 5 to 6 min
second half-life (intravenous injections): 42 to 45 min
local tolerability of deep intramuscular injections (parenteral, site of injection): often very painful and irritating at the site of injection
absorption by the rectal route (rectal, Steege et al.): highly variable
time in which all exogenous progesterone is metabolized (suggested by Myers et al.): ≤ 24 h
administered radiolabeled progesterone in urine (urine): 50 to 60%
